# Measured values: PMC8751651 (ACS Omega, 2021)
# Entries after “also recorded” stand apart in the source; their conditions may differ. Where a SMILES comes first, the peptide text is derived from it. Where no end group is shown, it is not given here. The star is where a group is joined. Biotin = O=C1N[C@H]2[C@H](CS[C@H]2CCCCC(=O)*)N1
# How the values were obtained:
# SARS-CoV-2 RBD protein [1] = target: T1, SARS-CoV-2 RBD protein (Severe acute respiratory syndrome coronavirus 2, UniProt P0DTC2); assay type: binding
# SARS-CoV-2 RBD protein [2] = target: T1, SARS-CoV-2 RBD protein; assay type: binding; remark: listed apart in the source
# [3] = system: inactivated SARS-CoV-2 virus; assay type: binding, SARS-CoV-2 (Isolate: USA-WA1/2020)
# influenza A virus = assay type: binding
Compound,SPR binding (SARS-CoV-2 RBD protein [1]),SPR binding curves / binding efficiency (SARS-CoV-2 RBD protein [2]),binding to inactivated virus [3],gold nanoparticles on magnetic beads (TEM) [3],gold nanoparticles on magnetic beads (TEM) (influenza A virus)
CC(C)C[C@H](NC(=O)[C@H](Cc1ccccc1)NC(=O)[C@H](CC(=O)O)NC(=O)[C@H](Cc1ccccc1)NC(=O)[C@H](CS)NC(=O)[C@H](CO)NC(=O)CCCC[C@@H]1SC[C@@H]2NC(=O)N[C@@H]21)C(=O)N[C@@H](CC(N)=O)C(=O)N[C@@H](Cc1c[nH]c2ccccc12)C(=O)N[C@@H](C)C(=O)N[C@@H](CO)C(=O)N[C@@H](CS)C(=O)N[C@@H](CC(=O)O)C(=O)NCC(=O)NCC(=O)NCC(=O)N[C@@H](CO)C(=O)O [peptide 1] (Biotin-SCFDFLNWASCDGGGS-OH; C-terminus assumed),significant binding,can efficiently bind to the SARS-CoV-2 RBD protein; also recorded: highest binding efficiency,can specifically bind to the SARS-CoV-2 virus,gold nanoparticles (dashed red circle) have conjugated onto the magnetic beads; also recorded: gold nanoparticles are observed on the magnetic beads,no gold nanoparticles are observed bound to the surface
Biotin-SCFDFLNWASCDGGGS (cysteine pairing not given here) [Biotinylated peptide 1],–,–,–,gold nanoparticles (dashed red circle) have conjugated onto the magnetic beads,–
